Laboratory results reported in patent publication US4927919A, “Chartreusin derivatives and salts thereof” (Ishihara Sangyo Kaisha, Ltd., priority 1985, dated 1990).

Legend:
[1] = Acute toxicity (LD50, single intravenous administration); parameters: species or system day mice; conditions: mouse, in vivo, mice, single i.v.
From the text: In Table 15 are shown acute toxicity values (LD50, mg/kg) in day mice in the case of intravenously administering (once) each of the compounds of this invention in the form of preparations shown in the Preparation Examples shown in Table 16.

[2] = test system: B-16 melanoma; experiment: Antitumor activity against B-16 melanoma (i.v. drug); format: in vivo, BDF1 mice; conditions: 60-day observation
Protocol: BDF1 mice were implanted intraperitoneally with a B-16 melanoma cell suspension in an amount of 0.5 ml/mouse, and each drug to be tested was administered intravenously on the first, fifth and ninth days after the implantion. […] The T/C (%) was calculated in the same manner as aforementioned (1--1).
The B-16 melanoma cell suspension was prepared as follows. Tumor fragment, maintained by subcutaneous passages in C57BL/6 mice, were aseptically removed and passed through a sterile stainless-steel mesh. Thus obtained tumor was dispersed in a culture medium or physiological saline in an amount of 9 ml per 1 g of tumor.

[3] = test system: P-388 leukemia cells; experiment: Antitumor activity against P-388 leukemia cells (i.p. implanted, i.v. drug); format: in vivo, BDF1 mice; conditions: for response vs control in vivo at 20 mg/kg: dose b: 20 mg/kg/d × 3 (days 1, 5, 9); for response vs control in vivo at 40 mg/kg: dose c: 40 mg/kg/d × 3 (days 1, 5, 9)
Protocol: BDF1 mice were implanted intraperitoneally with P-388 leukemia cells at a rate of 1×10^6 cells/mouse, and each drug to be tested was administered intravenously on the first, fifth and ninth days, or on the first and fifth days after the implantation. […] The T/C (%) was calculated based on the following equation: [formula]
The drugs tested were as follows: solutions prepared by dissolving each of compound Nos. 34, 36 and 43 to 46 in physiological saline; suspension or solutions prepared by dissolving each of compound Nos. 35, 38 and 49 to 55 in dimethylacetamide, followed by adding thereto a small amount of a surface active agent (e.g., Tween-80) and then physiological saline; and suspension or solutions prepared by mixing each of the other compounds and a small amount of a surface active agent (e.g., Tween-80), followed by adding thereto physiological saline.

[4] = test system: L-1210 leukemia cells; experiment: Antitumor activity against L-1210 leukemia cells (i.p. implanted, i.v. drug); format: in vivo, BDF1 mice; conditions: 30-day observation
Protocol: BDF1 mice were implanted intraperitoneally with L-1210 leukemia cells at a rate of 1×10^5 cells/mouse, and each drug to be tested was administered intravenously on the first, fifth and ninth days after the implantation. […] The T/C (%) was calculated in the same manner as aforementioned (1--1).
The drugs tested were suspensions or solutions which prepared by mixing each compound to be tested and a small amount of a surface active agent (e.g., Tween-80), followed by adding thereto physiological saline.

[5] = test system: B-16 melanoma; conditions: cancer inoculated i.p., drug i.p.; cited from earlier work
[6] = test system: P-388 leukemia; conditions: cancer inoculated i.p., drug i.p.; cited from earlier work
[7] = Intestinal excretion percentage of drugs; format: in vivo; conditions: DDY mice, i.v. 40 mg/kg-b.w., 2 hours
Protocol: Each drug to be tested was administered to DDY mice intravenously at a dose of 40 mg/kg-b.w., and after 2 hours, contents of the small intestine and the large intestine and feces were extracted with a mixed solvent of chloroform and methanol. The extract was concentrated and each compound to be tested was quantitatively determined by high-speed liquid chromatography.
The drug tested was solution which prepared by dissolving the compound No. 17 in a small amount of dimethylacetoamide, followed by adding thereto a small amount of a surface active agent (e.g., Tween-80 ) and physiological saline.

[8] = test system: cancer; conditions: different sites; cited from earlier work
[9] = in vivo; cited from earlier work
[10] = test system: L-1210 leukemia; conditions: cancer inoculated i.p., drug i.p.; cited from earlier work
[11] = Mus musculus, P388, iv, 720 h, i.v., 30-day observation, read-out: T/C of MST

Row | Compound | LD50 ([1]; Preparation Example 2) | T/C (%) of MST ([2]; 60 mg/kg × 3 (days 1, 5, 9)) | response vs control in vivo at 20 mg/kg [3, 11] | response vs control in vivo at 40 mg/kg [3, 11] | T/C (%) MST ([4]; 40 mg/kg × 3 (days 1, 5, 9)) | LD50 ([1]; Preparation Example 1) | also measured
1 | COC1C(O)C(C)OC(OC2C(Oc3cccc4c(OC(=O)c5cccn5C)c5c(=O)oc6ccc(C)c7c(=O)oc(c34)c5c67)OC(C)C3OC(c4ccccc4)OC32)C1O (stereo not shown) [Compound 2] | ≥ 60 mg/kg | 141% | 189% | 230% | 243% | – | –
2 | COC1C(O)C(C)OC(OC2C(Oc3cccc4c(OC(=O)c5c(-c6ccccc6)noc5C)c5c(=O)oc6ccc(C)c7c(=O)oc(c34)c5c67)OC(C)C3OC(c4ccccc4)OC32)C1O (stereo not shown) [Compound 14, 6-O-{4-(5-methyl-3-phenylisoxazolyl)-carbonyl}-3',4'-O-benzylidene-chartreusin] | – | 143% | 207% | 250% | 208% | ≥ 60 mg/kg | –
3 | COC1C(O)C(C)OC(OC2C(Oc3cccc4c(OC(=O)c5cccs5)c5c(=O)oc6ccc(C)c7c(=O)oc(c34)c5c67)OC(C)C3OC(c4ccccc4)OC32)C1O (stereo not shown) [Compound 11, 6-O-(2-thienyl-carbonyl)-3',4'-O-benzylidene-chartreusin] | ≥ 60 mg/kg | 143% | 217% | – | – | – | –
4 | CCn1cc(C(=O)Oc2c3cccc(OC4OC(C)C5OC(c6ccccc6)OC5C4OC4OC(C)C(O)C(OC)C4O)c3c3oc(=O)c4c(C)ccc5oc(=O)c2c3c54)c(=O)c2ccc(C)nc21 (stereo not shown) [Compound 33, 6-O-{3-(1,4-dihydro-1-ethyl-7-methyl-4-oxo-1,8-naphthyridinyl)-carbonyl}-3',4'-O-benzylidene-chartreusin] | – | – | 218% | 274% | – | ≥ 40 mg/kg | T/C (%) of MST ([2]; 40 mg/kg × 3 (days 1, 5, 9)): 142%
5 | COC1C(O)C(C)OC(OC2C(Oc3cccc4c(OC(=O)c5cccs5)c5c(=O)oc6ccc(C)c7c(=O)oc(c34)c5c67)OC(C)C3OC(C)(C)OC32)C1O (stereo not shown) [Compound 10] | – | – | – | 162% | – | – | LD50 ([1]; Preparation Example 4): ≥ 80 mg/kg; T/C of MST ([3]; i.v., dose f: 80 mg/kg/d × 3 (days 1, 5, 9), 30-day observation): 207%; T/C (%) MST ([4]; 80 mg/kg × 3 (days 1, 5, 9)): 140%
6 | CO[C@H]1[C@@H](O)[C@@H](C)O[C@H](O[C@H]2[C@H](Oc3cccc4c(O)c5c(=O)oc6ccc(C)c7c(=O)oc(c34)c5c67)O[C@H](C)[C@H](O)[C@@H]2O)[C@@H]1O [Chartreusin, chartreusin] | – | – | – | – | – | – | effect against B-16 melanoma (in words) [5]: effective; effect against P-388 leukemia (in words) [6]: effective; Intestinal excretion percentage [(total amount of excretion/dose) × 100] [7]: 37.6%; effect when site of cancer inoculation and site of administration were different (in words) [8]: not effective at all; T/C (%) ([3]; comparison, chartreusin suspension in 0.2M Na2HPO4 / N,N-dimethylacetamide (4:1)): 105%; biliary excretion relative to absorption to tissues (in words) [9]: biliary excretion of chartreusin essentially has the precedence over absorption thereof to tissues; effect against L-1210 leukemia (in words) [10]: effective
7 | COC1C(O)C(C)OC(OC2C(Oc3cccc4c(OC(=O)c5cc6ccccc6[nH]5)c5c(=O)oc6ccc(C)c7c(=O)oc(c34)c5c67)OC(C)C3OC(c4ccccc4)OC32)C1O (stereo not shown) [Compound 17, 6-O-(2-indolyl-carbonyl)-3',4'-O-benzylidene-chartreusin] | – | 141% | 199% | 255% | 181% | ≥ 60 mg/kg | Intestinal excretion percentage [(total amount of excretion/dose) × 100] [7]: 5.4%
8 | CCCCCC(=O)Oc1c2cccc(OC3OC(C)C4OC(c5ccccc5)OC4C3OC3OC(C)C(N)C(OC)C3O)c2c2oc(=O)c3c(C)ccc4oc(=O)c1c2c43 (stereo not shown) [Compound 54] | – | – | – | – | – | – | LD50 ([1]; Preparation Example 7): ≥ 40 mg/kg; response vs control in vivo at 20 mg/kg/day ([3]; Mus musculus, P388, iv, 720 h, i.v., dose b': 20 mg/kg/d × 2 (days 1, 5), 30-day observation, read-out: T/C of MST): 165%
9 | COC1C(O)C(C)OC(OC2C(Oc3cccc4c(OC(=O)c5ccco5)c5c(=O)oc6ccc(C)c7c(=O)oc(c34)c5c67)OC(C)C3OC(c4ccccc4)OC32)C1O (stereo not shown) [Compound 6] | ≥ 60 mg/kg | 159% | 199% | 217% | – | – | –
